IC50 data for 25 compounds are collected here from US8273900B2, “Organic compounds” (Novartis AG, priority 2008, dated 2012).

This assay deals with T1, human recombinant CRF-1 receptor (Homo sapiens, UniProt P34998).
T1 construct: expressed in transfected cells; host or cells: CHO cells (G418-selected)
T1 sequence (P34998 24-415): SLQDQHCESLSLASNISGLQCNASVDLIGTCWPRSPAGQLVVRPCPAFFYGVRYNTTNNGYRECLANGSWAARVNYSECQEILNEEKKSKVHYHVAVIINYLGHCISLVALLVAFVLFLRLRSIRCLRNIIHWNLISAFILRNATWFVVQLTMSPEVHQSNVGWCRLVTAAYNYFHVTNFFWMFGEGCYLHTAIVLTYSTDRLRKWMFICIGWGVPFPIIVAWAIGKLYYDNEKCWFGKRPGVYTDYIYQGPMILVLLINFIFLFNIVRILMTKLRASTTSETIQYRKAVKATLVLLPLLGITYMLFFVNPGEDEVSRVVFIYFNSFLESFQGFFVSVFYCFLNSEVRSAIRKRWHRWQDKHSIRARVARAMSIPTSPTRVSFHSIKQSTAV
As to the kind of experiment: CRF-1 receptor antagonism, HTRF cAMP assay in CHO cells in the presence of 1 nM CRF. Format: cell-based. As to conditions: CHO cells expressing human recombinant CRF-1; inhibition of the effect of 1 nM CRF on cAMP. The protocol: The CRF-1 or CRF-2α receptor antagonistic activity of the agents of the invention has been determined in vitro in the following assay:
Chinese hamster ovary (CHO) cells expressing either the human recombinant CRF-1 or CRF-2a receptors (Chen et al., Proc Natl Acad Sci USA 90, 8967-8971, 1993; Liaw et al., Endocrinology 137, 72-77, 1996) are propagated in Dulbecco's modified Eagle medium supplemented with 10% foetal calf serum, non-essential amino acids, 100 U/ml penicillin, 100 mg/l streptomycin and 1 g/l geneticin (G418). For cyclic AMP determinations the Homogeneous Time-Resolved Fluoresce (HTRF) cAMP dynamic 2 kit (Cisbio International, France) was used as per manufacturers' instructions. CHO cells, previously cryopreserved, were thawed, centrifuged for 7 mins at 1200 rpm and resuspended in serum free media, then pipetted out onto clear bottomed black tissue culture treated 384-well microtitre plates (Corning Inc, US) at 2,000 cells per well. Compounds of the invention, prepared in DMSO, and subsequently diluted 50 fold in assay buffer (1× Hanks balanced salt solution, 0.2% (w/v) bovine serum albumin, 1.7 mM isobutylmethylxanthine and 10 mM Hepes, pH 7.4) are then added onto the cell containing plate where a further 2 fold dilution is performed and incubated for 15 min. Following incubation, buffer containing a 5 times final concentration of agonist is added to the plate and incubated for 30 min. Finally, d2 dye labelled cAMP and cryptate labeled anti-cAMP antibody, both made in lysis buffer, are added to the plate followed by a settling period of 1 hour. During the settling period cAMP produced by the cells competes with the d2 labelled cAMP for the anti-cAMP cryptate. The plate is read on the Pherastar (BMG, Germany). Increasing levels of endogenous cAMP produced by cells can be followed by a decrease of fluorescent signal and vice versa. Values represented by a change in arbitrary fluorescence units are converted into cAMP concentrations by use of a standard curve the reagents for which are supplied with the kit. Antagonist dose response curves (1 nM-30 μM) are constructed in the presence of 1 nM CRF. IC50 values of antagonists are calculated by fitting the percent inhibition of the effect of CRF by increasing concentrations of the antagonists. The fit is performed using the nonlinear logistic function of the Activitybase software package v 5.4.5.27 (IDBS, UK).
For orientation: TR-FRET usually uses a lanthanide donor and a delayed reading to cut background.

Each structure is given as a SMILES string.

With `Cc1ccc2c(NC[C@H]3CC[C@H](NC(=O)c4cc(C(F)(F)F)ccc4Cl)CC3)n[nH]c2n1` [Example 19.74, Trans-2-chloro-N-(4-((6-methyl-1H-pyrazolo[3,4-b]pyridin-3-ylamino)methyl)cyclohexyl)-5-(trifluoromethyl) benzamide], the IC50 is 54 nM.

Consider `Cc1ncc(NC[C@H]2CC[C@H](NC(=O)c3cc(C(F)(F)F)ccc3Cl)CC2)cc1Cl` [Example 19.75, Trans-2-chloro-N-(4-((5-chloro-6-methylpyridin-3-ylamino)methyl)cyclohexyl)-5-(trifluoromethyl) benzamide], for which the 50% inhibitory concentration (IC50) came out at 54 nM.

For `CCCc1[nH]nc(NC[C@H]2CC[C@H](NC(=O)c3cc(C(F)(F)F)ccc3Cl)CC2)c1Br` [Example 19.76, Trans-N-(4-((4-bromo-5-propyl-1H-pyrazol-3-ylamino)methyl)cyclohexyl)-2-chloro-5-(trifluoromethyl) benzamide], the IC50 was 78 nM.

In the case of `Cc1c(NC[C@H]2CC[C@H](NC(=O)c3cc(C(F)(F)F)ccc3Cl)CC2)n[nH]c1-c1ccccc1` [Example 19.79, Trans-2-chloro-N-(4-((4-methyl-5-phenyl-1H-pyrazol-3-ylamino)methyl)cyclohexyl)-5-(trifluoromethyl) benzamide], the IC50 was 37 nM.

In the case of `O=C(N[C@H]1CC[C@H](CNc2n[nH]cc2-c2ccc(Cl)cc2)CC1)c1cc(C(F)(F)F)ccc1Cl` [Example 19.80, Trans-2-chloro-N-(4-((4-(4-chlorophenyl)-1H-pyrazol-3-ylamino)methyl)cyclohexyl)-5-(trifluoromethyl) benzamide], the half-inhibitory concentration (IC50) was 15 nM.

Take `Cc1cc(NC[C@H]2CC[C@H](NC(=O)c3cc(Cl)cnc3C)CC2)ncc1Cl` [Example 19.83, Trans-5-chloro-N-(4-((5-chloro-4-methylpyridin-2-ylamino)methyl)cyclohexyl)-2-methyl-nicotinamide]: the IC50 is 38 nM.

On to `Cc1[nH]nc(NC[C@H]2CC[C@H](NC(=O)c3cc(C(F)(F)F)ccc3Cl)CC2)c1-c1ccc(Cl)cc1` [Example 19.91, Trans-2-chloro-N-(4-((4-(4-chlorophenyl)-5-methyl-1H-pyrazol-3-ylamino)methyl)cyclohexyl)-5-(trifluoromethyl) benzamide], for which the IC50 was 57 nM.

On to `O=C(N[C@H]1CC[C@H](CNc2n[nH]c3cccnc23)CC1)c1cc(C(F)(F)F)ccc1Cl` [Example 19.93, Trans-N-(4-((1H-pyrazolo [4,3-b]pyridin-3-ylamino)methyl)cyclohexyl)-2-chloro-5-(trifluoromethyl) benzamide], for which the IC50 was 69 nM.

In the case of `O=C(N[C@H]1CC[C@H](CNc2n[nH]cc2-c2ccccc2)CC1)c1cc(C(F)(F)F)ccc1Cl` [Example 19.94, Trans-2-chloro-N-(4-((4-phenyl-1H-pyrazol-3-ylamino)methyl)cyclohexyl)-5-(trifluoromethyl) benzamide], the IC50 turned out to be 59 nM.

For `COc1ccc(Cl)c(NC[C@H]2CC[C@H](NC(=O)c3cc(C(F)(F)F)ccc3Cl)CC2)n1` [Example 19.98, Trans-2-Chloro-N-{4-[(3-chloro-6-methoxy-pyridin-2-ylamino)-methyl]-cyclohexyl}-5-trifluoromethyl-benzamide], the half-inhibitory concentration (IC50) was 52 nM.

With `O=C(N[C@H]1CC[C@H](CNc2nnnn2-c2ccccc2)CC1)c1cc(C(F)(F)F)ccc1Cl` [Example 19.100, Trans-2-Chloro-N-{4-[(1-phenyl-1H-tetrazol-5-ylamino)-methyl]-cyclohexyl}-5-trifluoromethyl-benzamide], the IC50 stood at 29 nM.

In the case of `Cn1cc(-c2ccccc2)c(NC[C@H]2CC[C@H](NC(=O)c3cc(C(F)(F)F)ccc3Cl)CC2)n1` [Example 19.101, Trans-2-Chloro-N-{4-[(1-methyl-4-phenyl-1H-pyrazol-3-ylamino)-methyl]-cyclohexyl}-5-trifluoromethyl-benzamide], the IC50 amounted to 69 nM.

As to `Cc1noc(NC[C@H]2CC[C@H](NC(=O)c3cc(C(F)(F)F)ccc3Cl)CC2)c1C` [Example 19.102, Trans-2-Chloro-N-{4-[(3,4-dimethyl-isoxazol-5-ylamino)-methyl]-cyclohexyl}-5-trifluoromethyl-benzamide], the IC50 worked out at 76 nM.

Take `O=C(N[C@H]1CC[C@H](CNc2[nH]ncc2-c2cccnc2)CC1)c1cc(C(F)(F)F)ccc1Cl` [Example 19.103, Trans-2-Chloro-N-{4-[(4-pyridin-3-yl-2H-pyrazol-3-ylamino)-methyl]-cyclohexyl}-5-trifluoromethyl-benzamide]: the IC50 is 37 nM.

For `[2H]C([2H])([2H])c1ncc(NC[C@H]2CC[C@H](NC(=O)c3cc(C(F)(F)F)ccc3Cl)CC2)cc1Cl` [Example 19.104, Trans-2-Chloro-N-{4-[(5-chloro-6-d3-methyl-pyridin-3-ylamino)-methyl]-cyclohexyl}-5-trifluoromethyl-benzamide], the 50% inhibitory concentration (IC50) is 80 nM.

In the case of `Cc1ncc(Cl)cc1C(=O)N[C@H]1CC[C@H](CNc2cc(C(F)(F)F)n[nH]2)CC1` [Example 19.107, Trans-5-Chloro-2-methyl-N-{4-[(5-trifluoromethyl-2H-pyrazol-3-ylamino)-methyl]-cyclohexyl}-nicotinamide], the half-maximal inhibitory concentration (IC50) worked out at 118 nM.

Turning to `Cc1ncc(Cl)cc1C(=O)N[C@H]1CC[C@H](CNc2ccc(F)cn2)CC1` [Example 19.108, Trans-5-Chloro-N-{4-[(5-fluoro-pyridin-2-ylamino)-methyl]-cyclohexyl}-2-methyl-nicotinamide], the half-maximal inhibitory concentration (IC50) was 72 nM.

Take `CCCc1cc(NC[C@H]2CC[C@H](NC(=O)c3cc(Cl)cnc3C)CC2)n[nH]1` [Example 19.110, Trans-2-Chloro-2 methyl-N-{4-[(5-propyl-1H-pyrazol-3-ylamino)-methyl]-cyclohexyl}-nicotinamide]: the IC50 is 97 nM.

As to `COc1ncc(Cl)cc1NC[C@H]1CC[C@H](NC(=O)c2cc(C(F)(F)F)ccc2Cl)CC1` [Example 19.113, Trans-2-Chloro-N-{4-[(5-chloro-2-methoxy-pyridin-3-ylamino)-methyl]-cyclohexyl}-5-trifluoromethyl-benzamide], the IC50 stood at 153 nM.

On to `Cc1n[nH]c(NC[C@H]2CC[C@H](NC(=O)c3cc(C(F)(F)F)ccc3Cl)CC2)c1Cl` [Example 19.114, Trans-2-Chloro-N-{4-[(4-chloro-5-methyl-2H-pyrazol-3-ylamino)-methyl]-cyclohexyl}-5-trifluoromethyl-benzamide], for which the IC50 was 34 nM.

For `Cc1cc(NC[C@H]2CC[C@H](NC(=O)c3cc(C(F)(F)F)ccc3Cl)CC2)n(-c2ccc(Cl)cc2)n1` [Example 19.116, Trans-2-Chloro-N-(4-{[2-(4-chloro-phenyl)-5-methyl-2H-pyrazol-3-ylamino]-methyl}-cyclohexyl)-5-trifluoromethyl-benzamide], the 50% inhibitory concentration (IC50) is 59 nM.

As for `CCc1[nH]nc(NC[C@H]2CC[C@H](NC(=O)c3cc(C(F)(F)F)ccc3Cl)CC2)c1C` [Example 19.117, Trans-2-Chloro-N-{4-[(5-ethyl-4-methyl-1H-pyrazol-3-ylamino)-methyl]-cyclohexyl}-5-trifluoromethyl-benzamide], the IC50 is 43 nM.

Turning to `O=C(N[C@H]1CC[C@H](Cn2ncc3ccccc32)CC1)c1cc(C(F)(F)F)ccc1Cl` [Example 21.1, N-(4-((1H-indazol-1-yl)methyl)cyclohexyl)-2-chloro-5-(trifluoromethyl) benzamide], the IC50 is 114 nM.

With `O=C(N[C@H]1CC[C@H](Cn2cc3ccccc3n2)CC1)c1cc(C(F)(F)F)ccc1Cl` [Example 21.2, 2-Chloro-N-(4-indazol-2-ylmethyl-cyclohexyl)-5-trifluorometnyl-benzamide], the IC50 was found to be 338 nM.

`Cc1nc(C)n(C[C@H]2CC[C@H](NC(=O)c3cc(C(F)(F)F)ccc3Cl)CC2)n1` [Example 21.4, 2-Chloro-N-[4-(3,5-dimethyl-[1,2,4]triazol-1-ylmethyl)-cyclohexyl]-5-trifluoromethyl-benzamide]: the half-maximal inhibitory concentration (IC50) amounted to 299 nM.

Broadly, the IC50 is the point on the concentration scale where inhibition reaches its midpoint.
